Values after ≈ are worked out from the molar mass of the structure shown. Like-named read-outs stand apart in the source and are kept apart here.
Assays:
[1] = In vitro plasma protein binding (ultrafiltration), mouse plasma; assay type: in vitro ADME, mouse (CD-1); details: CD-1, 10-10,000 ng/mL, mean±SD, read-out: mean unbound protein fraction (fu) in plasma
Method: (§1) For human binding studies, plasma was obtained from the blood of three healthy male volunteers. Plasma was defrosted from storage at -20° C. before use, and pools of human plasma were used for all studies. Plasma from mouse, rat, and monkey was supplied by Harlan Laboratories Ltd. (Netherlands), Milan […], Switzerland) and Centre de Primatologie ULP (France), respectively. Protein binding was measured using an ultrafiltration method. To asses the suitability of ultrafiltration, the recovery and free permeation of [^14C]-labelled Compound 1 in PBS buffer were investigated. […] Three 1 mL aliquots per concentration were introduced into […]® devices and spun for 1 min at 2000 g (filtrate ≤500 μL). Samples of the spiked solutions, the filtrate and retentate were quantified by LSC; volumes were determined by weighing. The free permeation of the test compound in PBS was evaluated as follows: Ratio=[Cuf/Cr] with Cuf being the concentration in the ultrafiltrate (ng/mL) and Cr the concentration in the retentate (ng/mL). […] Specifically, concentrations of Compound 1 was determined by an UPLC-MS/MS method. […] Standards and quality control samples were prepared on the day of analysis by adding a 20 μL aliquot of an appropriate standard or QC spiking solution in methanol. A 25 μL aliquot of the internal standard (at 200 ng/mL in methanol) was added to each well except blanks. […] Samples were processed using protein precipitation. A 0.5 mL aliquot of an acetonitrile/ethanol/acetic acid mixture (90:10:0.1, v:v:v) was added to each sample; samples were mixed using a vortex mixer for 10 minutes, and centrifuged 3800 rpm (approximately 2500×g) for 10 min at 10° C. […] The ions monitored for Compound 1 was the parent [M+H]^+ ion at m/z 557.3.0; the product ions at m/z 453.4. […] The quantification was performed using Analyst software and Watson LIMS version 7.2.0.01. Concentrations in QC and study samples were calculated from the resulting peak area ratios and interpolation from the regression equations of the respective calibration curves. The lower limit of quantitation was 5.0 ng/mL for Compound 1.

[2] = test system: plasma proteins; experiment: as above; assay type: in vitro ADME, mouse (CD-1); details: 10-10,000 ng/mL
Method: as §1

[3] = test system: MS CoNS; experiment: In vitro MIC, 2010 surveillance isolates; assay type: cell-based, Coagulase-Negative Staphylococcus; details: for Cumulative % Inhibition at MIC: N=461; for % R (resistance): Eucast breakpoints
[4] = test system: E. coli; experiment: In vitro activity in urine relative to standard media; assay type: cell-based
[5] = test system: K. pneumoniae FQR; experiment: In vitro MIC, 2010 surveillance isolates; assay type: cell-based, Klebsiella pneumoniae; details: N=412
[6] = In vitro plasma protein binding (ultrafiltration), rat plasma; assay type: in vitro ADME, rat (HanWistar); details: HanWistar, 10-10,000 ng/mL, mean±SD, read-out: mean unbound protein fraction (fu) in plasma
Method: (§2) For human binding studies, plasma was obtained from the blood of three healthy male volunteers. Plasma was defrosted from storage at -20° C. before use, and pools of human plasma were used for all studies. Plasma from mouse, rat, and monkey was supplied by Harlan Laboratories Ltd. (Netherlands), Milan […], Switzerland) and Centre de Primatologie ULP (France), respectively. Protein binding was measured using an ultrafiltration method. To asses the suitability of ultrafiltration, the recovery and free permeation of [^14C]-labelled Compound 1 in PBS buffer were investigated. […] Three 1 mL aliquots per concentration were introduced into […]® devices and spun for 1 min at 2000 g (filtrate ≤500 μL). Samples of the spiked solutions, the filtrate and retentate were quantified by LSC; volumes were determined by weighing. The free permeation of the test compound in PBS was evaluated as follows: Ratio=[Cuf/Cr] with Cuf being the concentration in the ultrafiltrate (ng/mL) and Cr the concentration in the retentate (ng/mL). […] Specifically, concentrations of Compound 1 was determined by an UPLC-MS/MS method. […] The ions monitored for Compound 1 was the parent [M+H]^+ ion at m/z 557.3.0; the product ions at m/z 453.4. […] The quantification was performed using Analyst software and Watson LIMS version 7.2.0.01. […] The lower limit of quantitation was 5.0 ng/mL for Compound 1.

[7] = test system: plasma proteins; experiment: as above; assay type: in vitro ADME, rat (HanWistar); details: 10-10,000 ng/mL
Method: as §2

[8] = Pharmacokinetics of Compound 1 in mouse plasma versus kidney; assay type: in vivo
[9] = 14C-Compound 1 excretion and kidney/blood distribution in rats; assay type: in vivo, rat
[10] = test system: S. marcescens; experiment: In vitro MIC, 2010 surveillance isolates; assay type: cell-based; details: N=424

CN(C)c1cc(CNCC(C)(C)C)c(O)c2c1C[C@H]1C[C@H]3[C@H](N(C)C)C(O)=C(C(N)=O)C(=O)[C@@]3(O)C(O)=C1C2=O [Compound 1, 9-[(2,2-dimethyl-propylamino)-methyl]-minocycline]
fraction unbound [1]: 0.847 ± 0.0531
Mean (SD) Bound Fraction [2]: 15.3 (5.31) %
mean unbound protein fraction (fu) in plasma ([2]; mean±SD): 84.7±5.3%
MIC90 ([3]; Asia/Pac, N=18): 0.25 mg/L (≈ 0.449 µM)
MIC90 ([3]; Europe, N=185): 1 mg/L (≈ 1.8 µM)
MIC90 ([3]; L. Amer, N=67): 0.5 mg/L (≈ 0.898 µM)
Cumulative % Inhibition at MIC ([3]; MIC 1 μg/ml): 99.8%
Cumulative % Inhibition at MIC ([3]; MIC 2 μg/ml): 100%
Cumulative % Inhibition at MIC ([3]; MIC ≤0.5 μg/ml): 92.4%
MIC90 ([3]; N America, N=191): 0.5 mg/L (≈ 0.898 µM)
activity in urine relative to standard media [4]: stable
Cumulative % Inhibition at MIC ([5]; MIC 1 μg/ml): 15.3%
Cumulative % Inhibition at MIC ([5]; MIC 2 μg/ml): 48.8%
Cumulative % Inhibition at MIC ([5]; MIC 4 μg/ml): 72.6%
Cumulative % Inhibition at MIC ([5]; MIC 8 μg/ml): 86.7%
Cumulative % Inhibition at MIC ([5]; MIC 16 μg/ml): 92.7%
Cumulative % Inhibition at MIC ([5]; MIC ≤0.5 μg/ml, listed as head image P00012): 1.2%
Cumulative % Inhibition at MIC ([5]; MIC ≥32 μg/ml): 100%
fraction unbound [6]: 0.739 ± 0.121
Mean (SD) Bound Fraction [7]: 26.1 (12.3) %
Kp ([8]; kidney/plasma, sc, Subcutaneous, 4.0 mg/kg, read-out: AUC Ratio Kidney:Plasma): 4.2
AUC(0-inf) ([8]; plasma, sc, Subcutaneous, 4.0 mg/kg): 2.82 µg·h/mL
Kp ([8]; tissues including kidney, relative to plasma, subcutaneous, 4 mg/kg, species not printed at b200, read-out: concentrations in tissues including the kidneys relative to plasma): ~4
concentration of radioactivity, kidney pelvis ([9]; IV, 5 minutes post dose): 11,300 ng/g
concentration of radioactivity, blood ([9]; IV, 24 hrs post dose): 0.0576 µg/mL
AUCinf, blood ([9]; oral dosing): 3.03 µg·h/mL
AUCinf, kidney cortex ([9]; oral dosing): 11,000 ng*h/ml
AUCinf, kidney medulla ([9]; oral dosing): 10,900 ng*h/ml
AUCinf, kidney pelvis ([9]; oral dosing): 10,500 ng*h/ml
Cmax, blood ([9]; oral dosing): 0.125 µg/mL
Cmax, kidney cortex ([9]; oral dosing): 721 ng/g
Cmax, kidney medulla ([9]; oral dosing): 722 ng/g
Cmax, kidney pelvis ([9]; oral dosing): 1580 ng/g
Cumulative % Inhibition at MIC ([10]; MIC 1 μg/ml): 0.7%
Cumulative % Inhibition at MIC ([10]; MIC 2 μg/ml): 20.3%
Cumulative % Inhibition at MIC ([10]; MIC 4 μg/ml): 76.2%
Cumulative % Inhibition at MIC ([10]; MIC 8 μg/ml): 91.0%
Cumulative % Inhibition at MIC ([10]; MIC 16 μg/ml): 93.6%
Cumulative % Inhibition at MIC ([10]; MIC ≤0.5 μg/ml, listed as head image P00017): 0%
Cumulative % Inhibition at MIC ([10]; MIC ≥32 μg/ml): 100%

CN(C)c1cc(NC(=O)CNC(C)(C)C)c(O)c2c1C[C@H]1C[C@H]3[C@H](N(C)C)C(O)=C(C(N)=O)C(=O)[C@@]3(O)C(O)=C1C2=O [Tigecycline]
% R (resistance) ([3]; Asia/Pac): 0%
MIC90 ([3]; Asia/Pac, N=18): 0.25 mg/L (≈ 0.427 µM)
% R (resistance) ([3]; Europe): 0%
MIC90 ([3]; Europe, N=185): 0.25 mg/L (≈ 0.427 µM)
MIC90 ([3]; L. Amer, N=67): 0.25 mg/L (≈ 0.427 µM)
MIC90 ([3]; N America, N=191): 0.25 mg/L (≈ 0.427 µM)
